These results are taken from US20120015907A1, “Furopyridine compounds and uses thereof” (NOVARTIS AG, priority 2010, published 2012).

Structures are written as SMILES.

The assay addresses T1, HCV polymerase (Hepatitis C virus genotype 1b, UniProt Q9WMX2).
T1 construct: (His)6 (C)
Kind of assay: biochemical. To be noted: polymerase assay of Biological Example 1; read-out: NS5B polymerase IC50.
Take `CNC(=O)c1c(-c2ccc(C)cc2)oc2nc(N(CCCCC(C)(C)C(=O)O)S(C)(=O)=O)c(C3CC3)cc12` [Example 29.2, 6-(N-(5-cyclopropyl-3-(methylcarbamoyl)-2-p-tolylfuro[2,3-b]pyridin-6-yl)methylsulfonamido)-2,2-dimethylhexanoic acid]: the IC50 was 1 nM. The value for `CNC(=O)c1c(-c2ccc(C)cc2)oc2nc(N(CCC3CCCC3C(=O)O)S(C)(=O)=O)c(C3CC3)cc12` (stereo not drawn) [Example 29.3, 2-(2-(N-(5-cyclopropyl-3-(methylcarbamoyl)-2-p-tolylfuro[2,3-b]pyridin-6-yl)methylsulfonamido)ethyl) cyclopentanecarboxylic acid] was 6 nM; that for `CNC(=O)c1c(-c2ccc(C)cc2)oc2nc(N(CCCC3CCCC3C(=O)O)S(C)(=O)=O)c(C3CC3)cc12` (stereo not drawn) [Example 29.4, 2-(3-(N-(5-cyclopropyl-3-(methylcarbamoyl)-2-p-tolylfuro[2,3-b]pyridin-6-yl)methylsulfonamido)propyl) cyclopentanecarboxylic acid] was 3 nM. The same measure for `CNC(=O)c1c(-c2ccc(C)cc2)oc2nc(N(CCCC#N)S(C)(=O)=O)c(C3CC3)cc12` [Example 29.5, 6-(N-(3-cyanopropyl)methylsulfonamido)-5-cyclopropyl-N-methyl-2-p-tolylfuro[2,3-b]pyridine-3-carboxamide]: 2 nM; for `CNC(=O)c1c(-c2ccc(C)cc2)oc2nc(N(CCCCC#N)S(C)(=O)=O)c(C3CC3)cc12` [Example 29.6, 6-(N-(4-cyanobutyl)methylsulfonamido)-5-cyclopropyl-N-methyl-2-p-tolylfuro[2,3-b]pyridine-3-carboxamide]: 2 nM; for `CCc1ccc(-c2oc3nc(N(CCCC4(C(=O)O)CCOCC4)S(C)(=O)=O)c(C4CC4)cc3c2C(=O)NC)cc1` [Example 29.7, 4-(3-(N-(5-cyclopropyl-2-(4-ethylphenyl)-3-(methylcarbamoyl)furo[2,3-b]pyridin-6-yl)methylsulfonamido)propyl) tetrahydro-2H-pyran-4-carboxylic acid]: 2 nM. The same measure for `CNC(=O)c1c(-c2ccc(C)cc2)oc2nc(N(CCCC3(C(=O)O)CC3)S(C)(=O)=O)c(C3CC3)cc12` [Example 29.8, 1-(3-(N-(5-cyclopropyl-3-(methylcarbamoyl)-2-p-tolylfuro[2,3-b]pyridin-6-yl)mcthylsulfonamido)propyl) cyclopropanecarboxylic acid]: 2 nM; for `CCc1ccc(-c2oc3nc(N(CCCCCC(=O)O)S(C)(=O)=O)c(C4CC4)cc3c2C(=O)NC)cc1` [Example 29.9, 6-(N-(5-cyclopropyl-2-(4-ethylphenyl)-3-(methylcarbamoyl)furo[2,3-b]pyridin-6-yl)methylsulfonamido) hexanoic acid]: 2 nM. As to `CCc1ccc(-c2oc3nc(N(CCCC4(C(=O)O)CCC4)S(C)(=O)=O)c(C4CC4)cc3c2C(=O)NC)cc1` [Example 29.91, 1-(3-(N-(5-cyclopropyl-2-(4-ethylphenyl)-3-(methylcarbamoyl)furo[2,3-b]pyridin-6-yl)methylsulfonamido)propyl) cyclobutanecarboxylic acid], the IC50 was determined as 2 nM.

Consider `CNC(=O)c1c(-c2ccc(C)cc2)oc2nc(N(CCCc3nn[nH]n3)S(C)(=O)=O)c(C3CC3)cc12` [Example 29.92, 6-(N-(3-(2H-tetrazol-5-yl)propyl)methylsulfonamido)-5-cyclopropyl-N-methyl-2-p-tolylfuro[2,3-b]pyridine-3-carboxamide], for which the IC50 is 2 nM. The value for `CNC(=O)c1c(-c2ccc(C)cc2)oc2nc(N(CCCCc3nn[nH]n3)S(C)(=O)=O)c(C3CC3)cc12` [Example 29.93, 6-(N-(4-(2H-tetrazol-5-yl)butyl)methylsulfonamido)-5-cyclopropyl-N-methyl-2-p-tolylfuro[2,3-b]pyridine-3-carboxamide] was 3 nM. As for `CCc1ccc(-c2oc3nc(N(CCCCC4(C(=O)O)CCOCC4)S(C)(=O)=O)c(C4CC4)cc3c2C(=O)NC)cc1` [Example 29.94, 4-(4-(N-(5-cyclopropyl-2-(4-ethylphenyl)-3-(methylcarbamoyl)furo[2,3-b]pyridin-6-yl)methylsulfonamido)butyl) tetrahydro-2H-pyran-4-carboxylic acid], the IC50 amounted to 3 nM. For `CNC(=O)c1c(-c2ccc(C)cc2)oc2nc(N(CCCCC3(C(=O)O)CCOCC3)S(C)(=O)=O)c(C3CC3)cc12` [Example 29.95, 4-(4-(N-(5-cyclopropyl-3-(methylcarbamoyl)-2-p-tolylfuro[2,3-b]pyridin-6-yl)methylsulfonamido)butyl) tetrahydro-2H-pyran-4-carboxylic acid], the IC50 was determined as 3 nM. Regarding `CNC(=O)c1c(-c2ccc(C)cc2)oc2nc(N(CCCC3(C(=O)O)COC3)S(C)(=O)=O)c(C3CC3)cc12` [Example 29.96, 3-(3-(N-(5-cyclopropyl-3-(methylcarbamoyl)-2-p-tolylfuro[2,3-b]pyridin-6-yl)methylsulfonamido)propyl) oxetane-3-carboxylic acid], the half-inhibitory concentration (IC50) amounted to 5 nM. The value for `C=CCN(c1nc2oc(-c3ccc(C)cc3)c(C(=O)NC)c2cc1C1CC1)S(C)(=O)=O` [Example 29.97, 6-(N-allylmethylsulfonamido)-5-cyclopropyl-N-methyl-2-p-tolylfuro[2,3-b]pyridine-3-carboxamide] was 3 nM; that for `C=CCCN(c1nc2oc(-c3ccc(C)cc3)c(C(=O)NC)c2cc1C1CC1)S(C)(=O)=O` [Example 29.98, 6-(N-(but-3-enyl)methylsulfonamido)-5-cyclopropyl-N-methyl-2-p-tolylfuro[2,3-b]pyridine-3-carboxamide] was 17 nM; that for `C=CCCCN(c1nc2oc(-c3ccc(C)cc3)c(C(=O)NC)c2cc1C1CC1)S(C)(=O)=O` [Example 29.99, 5-cyclopropyl-N-methyl-6-(N-(pent-4-enyl)methylsulfonamido)-2-p-tolylfuro[2,3-b]pyridine-3-carboxamide] was 14 nM. The same measure for `CNC(=O)c1c(-c2ccc(C)cc2)oc2nc(N(CCCCCCCC(=O)O)S(C)(=O)=O)c(C3CC3)cc12` [Example 29.991, 8-(N-(5-cyclopropyl-3-(methylcarbamoyl)-2-p-tolylfuro[2,3-b]pyridin-6-yl)methylsulfonamido) octanoic acid]: 4 nM. As for `CNC(=O)c1c(-c2ccc(C)cc2)oc2nc(N(CCCCCCCCC(=O)O)S(C)(=O)=O)c(C3CC3)cc12` [Example 29.992, 9-(N-(5-cyclopropyl-3-(methylcarbamoyl)-2-p-tolylfuro[2,3-b]pyridin-6-yl)methylsulfonamido) nonanoic acid], the IC50 came to 7 nM. The value for `CNC(=O)c1c(-c2ccc(C)cc2)oc2nc(N(CCCCCCCCCC(=O)O)S(C)(=O)=O)c(C3CC3)cc12` [Example 29.993, 10-(N-(5-cyclopropyl-3-(methylcarbamoyl)-2-p-tolylfuro[2,3-b]pyridin-6-yl)methylsulfonamido) decanoic acid] was 2 nM; that for `CNC(=O)c1c(-c2ccc(C)cc2)oc2nc(N(CC3CCC(=O)O3)S(C)(=O)=O)c(C3CC3)cc12` (stereo not drawn) [Example 29.994, 5-cyclopropyl-N-methyl-6-(N-((5-oxotetrahydrofuran-2-yl)methyl)methylsulfonamido)-2-p-tolylfuro[2,3-b]pyridine-3-carboxamide] was 6 nM.
